The results in this text go back to PubChem BioAssay AID308 (DTP/NCI, 2004).

The subject of the assay is BDF1 mice, L1210 6-MP/6-TG resistant leukemia ip, survival T/C. The experiment in a line: NCI In Vivo Anticancer Drug Screen. Data for tumor model L1210 Leukemia resistant to 6-MP and 6-Thioguanine; NSC 755, NSC 752 (intraperitoneal) in B6D2F1 (BDF1) mice. The note with it: endpoint: mean survival time, higher = longer survival. Here is the method: The antitumor activity of compounds was measured in mice bearing transplantable tumors. Survival or tumor size were measured and the results are expressed as the measurement made in the treated group (T) divided by the measurement made in the vehicle treated control group (C). The tumor model used in this assay is L1210 Leukemia resistant to 6-MP and 6-Thioguanine; NSC 755, NSC 752 (intraperitoneal) in B6D2F1 (BDF1) mice

Where [1] appears, read: dose: 25.0 mg/kg/injection, schedule: Q01DX Z (ip), vehicle: saline.
[2] abbreviates: dose: 2.5 mg/kg/injection, schedule: Q01DX Z (ip), vehicle: carboxymethylcellulose (CMC).
The mark [3] stands for this setting: dose: 7.5 mg/kg/injection, schedule: Q01DX Z (ip), vehicle: carboxymethylcellulose (CMC).
[4] abbreviates: dose: 25.0 mg/kg/injection, schedule: Q01DX Z (ip), vehicle: carboxymethylcellulose (CMC).
[5] abbreviates: dose: 50.0 mg/kg/injection, schedule: Q01DX Z (ip), vehicle: carboxymethylcellulose (CMC).
Setting [6] is: dose: 75.0 mg/kg/injection, schedule: Q01DX Z (ip), vehicle: carboxymethylcellulose (CMC).
[7] abbreviates: dose: 75.0 mg/kg/injection, schedule: Q01DX Z (ip), vehicle: saline.
Setting [8] is: dose: 100.0 mg/kg/injection, schedule: Q01DX Z (ip), vehicle: saline.
[9] abbreviates: dose: 62.5 mg/kg/injection, schedule: Q01DX Z (ip), vehicle: carboxymethylcellulose (CMC).
[10] abbreviates: dose: 125.0 mg/kg/injection, schedule: Q01DX Z (ip), vehicle: carboxymethylcellulose (CMC).
The mark [11] stands for this setting: dose: 250.0 mg/kg/injection, schedule: Q01DX Z (ip), vehicle: carboxymethylcellulose (CMC).

Several values for one entry are separate records, joined by “and”; a condition that tells them apart may be missing. Identical values can stand only once. Inconclusive results and toxic doses are left out.

Regarding `O=NN(CCCl)C(=O)NCCCl`, the T/C (dose: 2.0 mg/kg/injection, schedule: Q01DX015 (ip), vehicle: saline) was 166 % of control and 181 % of control and 196 % of control; the T/C (dose: 2.6 mg/kg/injection, schedule: Q01DX015 (ip), vehicle: saline) is 168 % of control; the T/C (dose: 6.0 mg/kg/injection, schedule: Q01DX015 (ip), vehicle: saline) was 156 % of control; the T/C (dose: 8.0 mg/kg/injection, schedule: Q01DX015 (ip), vehicle: saline) is 151 % of control and 157 % of control and 185 % of control; the T/C (dose: 9.0 mg/kg/injection, schedule: Q01DX015 (ip), vehicle: saline) is 164 % of control; the T/C (dose: 13.5 mg/kg/injection, schedule: Q01DX015 (ip), vehicle: saline) is 123 % of control.

As to `CCCNc1ncnc2[nH]ncc12`, under setting [1], the T/C is 111 % of control.

On to `O=C(O)c1cc[c]([Hg][S]c2ncnc3nc[nH]c23)cc1`, for which the T/C is, setting by setting: (dose: 12.5 mg/kg/injection, schedule: Q01DX015 (ip), vehicle: carboxymethylcellulose (CMC)) 95 % of control; (dose: 25.0 mg/kg/injection, schedule: Q01DX015 (ip), vehicle: carboxymethylcellulose (CMC)) 87 % of control.

As for `CC(=O)Nc1ccc2nc3ccc(NC(C)=O)cc3[n+](-c3ccccc3)c2c1`, the T/C is 95 % of control (dose: 1.25 mg/kg/injection, schedule: Q01DX Z (ip), vehicle: carboxymethylcellulose (CMC)); 103 % of control under setting [2]; 154 % of control under setting [3]; 202 % of control under setting [4]; 176 % of control under setting [5]; 180 % of control under setting [6]. Besides, the T/C is, setting by setting: (dose: 100.0 mg/kg/injection, schedule: Q01DX Z (ip), vehicle: carboxymethylcellulose (CMC)) 121 % of control; (dose: 200.0 mg/kg/injection, schedule: Q01DX Z (ip), vehicle: carboxymethylcellulose (CMC)) 150 % of control; (dose: 300.0 mg/kg/injection, schedule: Q01DX Z (ip), vehicle: carboxymethylcellulose (CMC)) 122 % of control.

As to `CC(CCC(C)OS(C)(=O)=O)OS(C)(=O)=O` (centres undefined), the T/C reads like this: under setting [4], 112 % of control; (dose: 37.5 mg/kg/injection, schedule: Q01DX Z (ip), vehicle: carboxymethylcellulose (CMC)) 116 % of control; under setting [5], 118 % of control; under setting [6], 98 % of control.

For `CN(Cc1cnc2nc(N)nc(N)c2n1)c1ccc(C(=O)N[C@@H](CCC(=O)O)C(=O)O)cc1`, the T/C was 172 % of control (dose: 0.6 mg/kg/injection, schedule: Q02DX010 (ip), vehicle: carboxymethylcellulose (CMC)); 163 % of control (dose: 0.9 mg/kg/injection, schedule: Q02DX010 (ip), vehicle: carboxymethylcellulose (CMC)); 220 % of control (dose: 1.3 mg/kg/injection, schedule: Q02DX010 (ip), vehicle: carboxymethylcellulose (CMC)); 261 % of control (dose: 2.0 mg/kg/injection, schedule: Q02DX010 (ip), vehicle: carboxymethylcellulose (CMC)); 282 % of control (dose: 3.0 mg/kg/injection, schedule: Q02DX010 (ip), vehicle: carboxymethylcellulose (CMC)); 294 % of control (dose: 4.5 mg/kg/injection, schedule: Q02DX010 (ip), vehicle: carboxymethylcellulose (CMC)). For the same molecule, the T/C (dose: 6.75 mg/kg/injection, schedule: Q02DX010 (ip), vehicle: carboxymethylcellulose (CMC)) is 290 % of control.

In the case of `COS(C)(=O)=O`, the T/C under setting [1] was 105 % of control; the T/C (dose: 50.0 mg/kg/injection, schedule: Q01DX Z (ip), vehicle: saline) was 114 % of control; the T/C under setting [7] is 116 % of control; the T/C under setting [8] is 106 % of control.

For `OCC1OC(n2cnc3c(Cl)ncnc32)C(O)C1O` (centres undefined), the T/C reads like this: under setting [9], 91 % of control; under setting [10], 89 % of control; under setting [11], 95 % of control; (dose: 500.0 mg/kg/injection, schedule: Q01DX Z (ip), vehicle: carboxymethylcellulose (CMC)) 95 % of control; (dose: 1000.0 mg/kg/injection, schedule: Q01DX001 (ip), vehicle: carboxymethylcellulose (CMC)) 92 % of control and 97 % of control; (dose: 1500.0 mg/kg/injection, schedule: Q01DX001 (ip), vehicle: carboxymethylcellulose (CMC)) 94 % of control and 99 % of control. Also, the T/C (dose: 2000.0 mg/kg/injection, schedule: Q01DX001 (ip), vehicle: carboxymethylcellulose (CMC)) was 94 % of control and 97 % of control.

As to `O=P1(N(CCCl)CCCl)NCCCO1` (centres undefined), the T/C was 153 % of control (dose: 37.5 mg/kg/injection, schedule: Q01DX Z (ip), vehicle: saline); 94 % of control under setting [7]; 101 % of control under setting [8].

Turning to `Clc1ccc(C(c2ccccc2Cl)C(Cl)Cl)cc1` (centres undefined), the T/C by setting is: (dose: 23.0 mg/kg/injection, schedule: Q01DX Z (sc), vehicle: steriod suspending solution) 94 % of control; (dose: 46.0 mg/kg/injection, schedule: Q01DX Z (sc), vehicle: steriod suspending solution) 97 % of control; (dose: 93.0 mg/kg/injection, schedule: Q01DX Z (sc), vehicle: steriod suspending solution) 103 % of control; (dose: 187.0 mg/kg/injection, schedule: Q01DX Z (sc), vehicle: steriod suspending solution) 101 % of control; (dose: 375.0 mg/kg/injection, schedule: Q01DX Z (sc), vehicle: steriod suspending solution) 104 % of control; (dose: 500.0 mg/kg/injection, schedule: Q01DX Z (sc), vehicle: steriod suspending solution) 100 % of control. Also, the T/C (dose: 750.0 mg/kg/injection, schedule: Q01DX Z (sc), vehicle: steriod suspending solution) is 96 % of control and the T/C (dose: 1000.0 mg/kg/injection, schedule: Q01DX Z (sc), vehicle: steriod suspending solution) is 98 % of control.

As for `S=P(N1CCOCC1)(N1CC1)N1CC1`, the T/C is, setting by setting: (dose: 1.87 mg/kg/injection, schedule: Q01DX Z (ip), vehicle: carboxymethylcellulose (CMC)) 90 % of control; under setting [2], 93 % of control; (dose: 3.75 mg/kg/injection, schedule: Q01DX Z (ip), vehicle: carboxymethylcellulose (CMC)) 151 % of control; (dose: 5.0 mg/kg/injection, schedule: Q01DX Z (ip), vehicle: carboxymethylcellulose (CMC)) 117 % of control; under setting [3], 116 % of control; (dose: 12.5 mg/kg/injection, schedule: Q01DX Z (ip), vehicle: carboxymethylcellulose (CMC)) 109 % of control. The T/C (dose: 15.0 mg/kg/injection, schedule: Q01DX Z (ip), vehicle: carboxymethylcellulose (CMC)) is 118 % of control.

With `CSc1ncnc2c1ncn2C1CC(O)C(CO)O1` (centres undefined), the T/C is 105 % of control (dose: 32.0 mg/kg/injection, schedule: Q## X032 (ip), vehicle: saline); 96 % of control (dose: 48.0 mg/kg/injection, schedule: Q## X032 (ip), vehicle: saline); 107 % of control (dose: 72.0 mg/kg/injection, schedule: Q## X032 (ip), vehicle: saline).

Take `Nc1nc2n[nH]nc2c(=O)[nH]1`: the T/C runs as follows: (dose: 12.5 mg/kg/injection, schedule: Q01DX Z (ip), vehicle: water) 100 % of control; (dose: 25.0 mg/kg/injection, schedule: Q01DX Z (ip), vehicle: water) 104 % of control; (dose: 50.0 mg/kg/injection, schedule: Q01DX Z (ip), vehicle: water) 98 % of control; (dose: 100.0 mg/kg/injection, schedule: Q01DX Z (ip), vehicle: water) 92 % of control; (dose: 200.0 mg/kg/injection, schedule: Q01DX Z (ip), vehicle: water) 95 % of control.

`CC[C@]1(O)C[C@H]2CN(CCc3c([nH]c4ccccc34)[C@@](C(=O)OC)(c3cc4c(cc3OC)N(C=O)[C@H]3[C@@](O)(C(=O)OC)[C@H](OC(C)=O)[C@]5(CC)C=CCN6CC[C@]43[C@@H]65)C2)C1`: the T/C runs as follows: (dose: 0.09 mg/kg/injection, schedule: Q01DX015 (ip), vehicle: carboxymethylcellulose (CMC)) 91 % of control and 110 % of control; (dose: 0.13 mg/kg/injection, schedule: Q01DX015 (ip), vehicle: carboxymethylcellulose (CMC)) 114 % of control and 98 % of control; (dose: 0.2 mg/kg/injection, schedule: Q01DX015 (ip), vehicle: carboxymethylcellulose (CMC)) 94 % of control and 106 % of control; (dose: 0.3 mg/kg/injection, schedule: Q01DX015 (ip), vehicle: carboxymethylcellulose (CMC)) 90 % of control and 92 % of control; (dose: 0.45 mg/kg/injection, schedule: Q01DX015 (ip), vehicle: carboxymethylcellulose (CMC)) 93 % of control.

For the molecule `Ic1ncnc2nc[nH]c12`, the T/C reads like this: under setting [9], 88 % of control; under setting [10], 89 % of control; under setting [11], 89 % of control.
